Data reported in ChEMBL document CHEMBL1201862, “PubChem BioAssay data set” (2004).
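Results reflect a 48-hour exposure of cells in 96-well plates to compound at five concentrations. GI50 is the concentration that inhibits growth by half.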 Calls of active or inactive are those of the source. Rule as the data show it: active = GI50 up to about 1.1 µM and inactive = higher.

Assays:
Assay in all cases: growth of human tumour cells (NCI), 48 h
HOP-18 = tested on: HOP-18
DLD-1 = tested on: DLD-1
NCI/ADR-RES = tested on: NCI/ADR-RES
SNB-19 = tested on: SNB-19
SF-295 = tested on: SF-295
KM-20L2 = tested on: KM-20L2
K562 = tested on: K562
UACC-62 = tested on: UACC-62
OVCAR-8 = tested on: OVCAR-8
SNB-78 = tested on: SNB-78
DMS-273 = tested on: DMS-273
XF498 = tested on: XF498
HCT-15 = tested on: HCT-15
OVCAR-3 = tested on: OVCAR-3
786-0 = tested on: 786-0
PC-3 = tested on: PC-3
MDA-MB-435 = tested on: MDA-MB-435
Hs-578T = tested on: Hs-578T

Compound	GI50 (HOP-18)	GI50 (DLD-1)	GI50 (NCI/ADR-RES)	GI50 (SNB-19)	GI50 (SF-295)	GI50 (KM-20L2)	GI50 (K562)	GI50 (UACC-62)	GI50 (OVCAR-8)	GI50 (SNB-78)	GI50 (DMS-273)	GI50 (XF498)	GI50 (HCT-15)	GI50 (OVCAR-3)	GI50 (786-0)	GI50 (PC-3)	GI50 (MDA-MB-435)	GI50 (Hs-578T)
Cc1cc(C)c(C2=NO[C@@H]3[C@H]2C(=O)C=C2N(Cc4ccccc4)CCO[C@@]23O)c(C)c1	> 100 µM (inactive)	> 100 µM (inactive)	> 100 µM (inactive)	> 100 µM (inactive)	> 100 µM (inactive)	> 100 µM (inactive)	> 100 µM (inactive)	> 100 µM (inactive)	> 100 µM (inactive)	> 100 µM (inactive)	> 100 µM (inactive)	> 100 µM (inactive)	> 100 µM	> 100 µM (inactive)	–	–	–	–
O=S(O)CCCCSSCCCCS(=O)(=O)S	84.3 µM (inactive)	> 100 µM (inactive)	–	> 100 µM (inactive)	35.5 µM (inactive)	> 100 µM (inactive)	32.1 µM (inactive)	18 µM (inactive)	37.8 µM (inactive)	35.1 µM (inactive)	50.9 µM (inactive)	15.3 µM (inactive)	59 µM	49.2 µM (inactive)	> 100 µM (inactive)	–	–	–
O=C1CSc2cc([N+](=O)[O-])ccc2N1	> 100 µM (inactive)	> 100 µM (inactive)	–	> 100 µM (inactive)	> 100 µM (inactive)	> 100 µM (inactive)	> 100 µM (inactive)	> 100 µM (inactive)	> 100 µM (inactive)	> 100 µM (inactive)	> 100 µM (inactive)	> 100 µM (inactive)	> 100 µM	> 100 µM (inactive)	> 100 µM (inactive)	–	–	–
COC(=O)C(=O)C(C(=O)Nc1cccc(C)c1C)C1Sc2ccccc2NC1=O (centres undefined)	> 25 µM (inactive)	11.2 µM (inactive)	–	21.9 µM (inactive)	12.1 µM (inactive)	8.67 µM (inactive)	9.79 µM (inactive)	8.09 µM (inactive)	19.5 µM (inactive)	21.2 µM (inactive)	11.8 µM (inactive)	> 25 µM (inactive)	11.4 µM	20 µM (inactive)	–	–	–	–
CCOCc1cc(=O)c2c(O)cc3c(c2o1)CCC(C)(C)O3	> 100 µM (inactive)	> 100 µM (inactive)	–	> 100 µM (inactive)	> 100 µM (inactive)	> 100 µM (inactive)	> 100 µM (inactive)	> 100 µM (inactive)	> 100 µM (inactive)	> 100 µM (inactive)	> 100 µM (inactive)	–	> 100 µM	> 100 µM (inactive)	–	–	–	–
C[C@H](C(=O)O)C(=O)NC(=O)N(Cc1ccccc1)N=O	0.0525 µM (active)	> 100 µM (inactive)	–	> 100 µM (inactive)	> 100 µM (inactive)	> 100 µM (inactive)	88.3 µM (inactive)	> 100 µM (inactive)	> 100 µM (inactive)	> 100 µM (inactive)	> 100 µM (inactive)	> 100 µM (inactive)	> 100 µM	> 100 µM (inactive)	> 100 µM (inactive)	–	–	–
CC1CC=CC(O)C1 (centres undefined)	> 100 µM (inactive)	> 100 µM (inactive)	> 100 µM (inactive)	> 100 µM (inactive)	> 100 µM (inactive)	> 100 µM (inactive)	> 100 µM (inactive)	> 100 µM (inactive)	> 100 µM (inactive)	> 100 µM (inactive)	> 100 µM (inactive)	> 100 µM (inactive)	> 100 µM	> 100 µM (inactive)	–	–	–	–
CC(C)C(=O)N1C(=O)O[C@@H](c2ccccc2)[C@H]1C	> 100 µM (inactive)	> 100 µM (inactive)	–	> 23.6 µM (inactive)	> 100 µM (inactive)	> 100 µM (inactive)	> 100 µM (inactive)	> 100 µM (inactive)	> 100 µM (inactive)	> 100 µM (inactive)	> 100 µM (inactive)	> 100 µM (inactive)	> 100 µM	> 100 µM (inactive)	> 100 µM (inactive)	–	–	–
CN(C)CCNC(=O)c1ccc(Cl)c2ccc(-c3ccccc3)nc12	3.26 µM (inactive)	2.92 µM (inactive)	2.42 µM (inactive)	3.06 µM (inactive)	2.96 µM (inactive)	2.62 µM (inactive)	2.27 µM (inactive)	2.69 µM (inactive)	2.57 µM (inactive)	6.32 µM (inactive)	3 µM (inactive)	3.16 µM (inactive)	3.42 µM	5.4 µM (inactive)	–	–	–	–
COc1ccc2cc3[n+](cc2c1OC)CCc1cc2c(cc1-3)OCO2 [BERBERINE CHLORIDE]	106 µM (inactive)	–	–	8.38 µM (inactive)	–	28.2 µM (inactive)	16.6 µM (inactive)	29.9 µM (inactive)	12.7 µM (inactive)	53.8 µM (inactive)	10.3 µM (inactive)	7.82 µM (inactive)	–	–	> 49.4 µM (inactive)	26.9 µM (inactive)	12.8 µM (inactive)	10 µM (inactive)
COCC1N=C(c2cc(OC)c(OC)c(OC)c2-c2cc3c(cc2[C@@H](C)O)OCO3)O[C@H]1c1ccccc1 (some centres undefined)	> 86.5 µM (inactive)	> 89.7 µM (inactive)	40.2 µM (inactive)	73.1 µM (inactive)	57.7 µM (inactive)	98.2 µM (inactive)	> 100 µM (inactive)	33.6 µM (inactive)	> 74.5 µM (inactive)	> 45.2 µM (inactive)	> 71.9 µM (inactive)	–	> 100 µM	50 µM (inactive)	–	–	–	–
